Results reported in ChEMBL document CHEMBL2203167, “Structural modifications of 5,6-dihydroxypyrimidines with anti-HIV activity” (Bioorg Med Chem Lett, 2012).

How the values were obtained:
[1] = system: Human immunodeficiency virus 1; experiment: Antiviral activity against HIV1 3B infected in human C8166 cells assessed as inhibition of syncytia after 3 days; assay type: functional, organism-based; settings: Human immunodeficiency virus 1, 3B, C8166, 72 h
[2] = Therapeutic index, ratio of CC50 for human C8166 cells to EC50 for HIV1 3B; assay type: cell-based; settings: read-out: Ratio CC50/EC50
[3] = Cytotoxicity against human C8166 cells after 3 days by MTT assay; assay type: cell-based

COc1ccc(CNC(=O)c2nc(C(C)(C)NC(=O)OCc3ccccc3)nc(O)c2O)cc1 gave an EC50 [1] of 0.15 µM, a selectivity ratio [2] of 1090 and a CC50 at 72 h [3] of 164 µM.
For COc1cc(CNC(=O)c2nc(C(C)(C)NC(=O)OCc3ccccc3)nc(O)c2O)cc(OC)c1OC, the EC50 [1] was 12.3 µM, the selectivity ratio [2] was 8.89 and the CC50 at 72 h [3] was 110 µM.
In the case of CC(C)(NC(=O)OCc1ccccc1)c1nc(O)c(O)c(C(=O)NCCc2ccc(F)cc2)n1, the EC50 [1] is reported as 8.61 µM, the selectivity ratio [2] is reported as 4.11 and the CC50 at 72 h [3] is reported as 35.4 µM.
CC(C)(NC(=O)OCc1ccccc1)c1nc(O)c(O)c(C(=O)NCCc2ccccc2)n1 gave an EC50 [1] of 11.6 µM, a selectivity ratio [2] of 3.32 and a CC50 at 72 h [3] of 38.5 µM.
With CC(C)(NC(=O)OCc1ccccc1)c1nc(O)c(O)c(C(=O)NCCc2cc3ccccc3[nH]2)n1 the EC50 [1] was 7.12 µM, the selectivity ratio [2] was 4.76 and the CC50 at 72 h [3] was 34.1 µM.
COCCNC(=O)c1nc(C(C)(C)NC(=O)OCc2ccccc2)nc(O)c1O gave an EC50 [1] of 26 µM, a selectivity ratio [2] of 13.4 and a CC50 at 72 h [3] of 348 µM.
COCCCNC(=O)c1nc(C(C)(C)NC(=O)OCc2ccccc2)nc(O)c1O showed an EC50 [1] of 8.3 µM, a selectivity ratio [2] of 31.2 and a CC50 at 72 h [3] of 259 µM.
In the case of CC(C)(NC(=O)OCc1ccccc1)c1nc(O)c(O)c(C(=O)NCC2CC2)n1, the EC50 [1] is reported as 24.4 µM, the selectivity ratio [2] is reported as 8.33 and the CC50 at 72 h [3] is reported as 204 µM.
For CC(C)(NC(=O)OCc1ccccc1)c1nc(O)c(O)c(C(=O)NN)n1, the EC50 [1] was 164 µM, the selectivity ratio [2] was over 3.37 and the CC50 at 72 h [3] was over 500 µM.
Molecule CC(C)(NC(=O)OCc1ccccc1)c1nc(O)c(O)c(C(=O)N/N=C/c2ccc(F)cc2)n1 has an EC50 [1] of 27.7 µM, a selectivity ratio [2] of 13.7 and a CC50 at 72 h [3] of 378 µM.
Molecule CC(C)(NC(=O)OCc1ccccc1)c1nc(O)c2oc(=O)[nH]c2n1 has an EC50 [1] of 74.2 µM, a selectivity ratio [2] of over 7.83 and a CC50 at 72 h [3] of over 500 µM.
In the case of CC(C)(NC(=O)OCc1ccccc1)c1nc(O)c(O)c(NC(=O)NCc2ccc(F)cc2)n1, the EC50 [1] is reported as 9.87 µM, the selectivity ratio [2] is reported as 8.21 and the CC50 at 72 h [3] is reported as 81.1 µM.
Molecule COc1ccc(CNC(=O)Nc2nc(C(C)(C)NC(=O)OCc3ccccc3)nc(O)c2O)cc1 has an EC50 [1] of 93.2 µM, a selectivity ratio [2] of 4.46 and a CC50 at 72 h [3] of over 500 µM.
Molecule COCCNC(=O)Nc1nc(C(C)(C)NC(=O)OCc2ccccc2)nc(O)c1O has an EC50 [1] of 52.3 µM, a selectivity ratio [2] of over 9.13 and a CC50 at 72 h [3] of over 500 µM.
In the case of CC(C)(NC(=O)OCc1ccccc1)c1nc(O)c(O)c(C(=O)NCc2ccccc2)n1, the EC50 [1] is reported as 0.32 µM, the selectivity ratio [2] is reported as 128 and the CC50 at 72 h [3] is reported as 41.4 µM.
Work on CC(C)(NC(=O)OCc1ccccc1)c1nc(O)c(O)c(C(=O)NCc2ccccc2Cl)n1 yielded an EC50 [1] of 0.14 µM, a selectivity ratio [2] of 396 and a CC50 at 72 h [3] of 53.9 µM.
Cc1ccc(CNC(=O)c2nc(C(C)(C)NC(=O)OCc3ccccc3)nc(O)c2O)cc1 showed an EC50 [1] of 0.55 µM, a selectivity ratio [2] of 383 and a CC50 at 72 h [3] of 234 µM.
CC(C)(NC(=O)OCc1ccccc1)c1nc(O)c(O)c(C(=O)NCc2ccc(C(F)(F)F)cc2)n1 gave an EC50 [1] of 0.24 µM, a selectivity ratio [2] of 244 and a CC50 at 72 h [3] of 58.1 µM.
Cc1cn([C@H]2C[C@H](N=[N+]=[N-])[C@@H](CO)O2)c(=O)[nH]c1=O [ZIDOVUDINE] gave an EC50 [1] of 0.019 µM and a selectivity ratio [2] of 274000.
